Experiments:
hämorrhagischen Schock [1] = assay: Second shock model: two-day observation phase, no preparation of the M. cremaster; type: in vivo; conditions: for Überlebende: number of survivors, N=15 per compound, Kontrolle 12 of 40
Description: (§1) Die Eignung von Alinidin und anderen Verbindungen der allgemeinen Formel I zur erfindungsgemäßen Anwendung bei der Schocktherapie wurde in tierexperimentellen Untersuchungen an einem Cremaster-Modell bestätigt. Dieses Modell stellt eine etablierte Methode dar, (S. Hergenröder "Mikrozirkulation im hämorrhagischen Schock", Diplomarbeit am Fachbereich Biologie der Joh.-Gutenberg-Universität, Mainz 1987). An diesem Modell werden Einflüsse auf den systemischen Blutdruck, die Herzfrequenz, den daraus errechneten Schockindex sowie wichtige mikrozirkulatorische Parameter, wie Arteriolendurchmesser, die Eryhthrozytenfließgeschwindigkeit und die daraus errechnete Mikroperfusion (Organdurchblutung) und die Überlebensrate bestimmt. Der Versuchsablauf besteht aus einer präparativen Kontrollphase, gefolgt von einer spontanen Entblutung mit einem raschen Blutdruckabfall auf 25 mm Hg, einer isovolämischen intravenösen 10-minütigen Infusion mit physiologischer NaCl-Lösung (Kontrolltiere) bzw. physiologischer NaCl-Lösung mit darin gelösten Wirkstoffen und einer abschließenden Nachbeobachtungsphase (60 - 120 Minuten). Das zweite Modell unterscheidet sich durch eine zweitägige Nachbeobachtungsphase ohne Präparation des M. cremaster.

hämorrhagischen Schock [2] = assay: Cremaster model of haemorrhagic shock (bleeding to 25 mm Hg, 10-minute isovolaemic i.v. infusion, 60-120 min observation); type: in vivo; conditions: Alinidin 1 mg/kg, N=6
Description: as §1, with “cremaster. […]” for “cremaster.”

Row | Compound | Überlebende (hämorrhagischen Schock [1]) | überlebten (Tiere) (hämorrhagischen Schock [1]; survivors out of 15 pretreated animals) | Überlebensrate (hämorrhagischen Schock [2]; NaCl control group 4 of 20 animals surviving after 60 minutes) | systemische, insbesondere mikrozirkulatorische Parameter (hämorrhagischen Schock [2]; effects in NaCl control group small and short-lived)
1 | CC#CCN(C1=NCCN1)c1c(Cl)cccc1Cl [B, 2-[N-2,6-Dichlorphenyl-N-2-butinylamino]imidazolin-(2)] | 10 |  |  | 
2 | CCc1cccc(CC)c1N=C1NCCN1 [A, 2-[2,6-Diethylphenylimino]imidazolidin] | 10 |  |  | 
3 | C=CCN(C1=NCCN1)c1c(Cl)cccc1Cl [C, 2-[N-2,6-Dichlorphenyl-N-allylamino]imidazolin-(2)] | 13 | 13 | 100% | Erholung

From patent EP0326936A2, “Use of 2-(phenyl-amino)-2-imidazolines in the application of shock therapy” (BOEHRINGER INGELHEIM KG, priority 1988, dated 1989)
